Data as given in patent US20210401931A1, “METHODS AND MATERIALS FOR TREATING CANCER” (Mayo Foundation for Medical Education and Research, priority 2018, published 2021).
Ends that are not written are not given here.

Assays:
p65-N = biological target: T1, p65-N (Homo sapiens, UniProt Q04206); test: In vitro protein binding assay of RL peptide with GST-p65-N; settings: compared to phosphorylation-resistant mutant
T1 construct: made in house

PD-L1 = PD-L1 expression (western blot, RT-qPCR) in PC-3 cells expressing RL peptide; assay type: cell-based, human; settings: for gamma irradiation-induced upregulation of PD-L1: 12 Gy
Method: FIGS. 5A-K. The importance of S249/T252 phosphorylation of RB in regulation of PD-L1 expression. (A, B) PC-3 cells were infected with lentivirus expressing control shRNA, RB1-specific, p65-specific, or both shRNA. 48 hours post puromycin selection, cells were harvested for western blotting (A) and RT-qPCR analysis (B). All data were shown as mean values±SD (n=3). * P<0.05, ** P<0.01, *** P<0.001. (C, D) DU145 cells were transfected with indicated plasmids. 24 hours after transfection, cells were harvested for western blotting analysis (C) and RT-qPCR analysis (D). All data were shown as mean values±SD (n=3). * P<0.05, ** P<0.01, *** P<0.001. (E, F) DU145 cells were transfected with indicated plasmids. 24 hours after transfection, cells were harvested for western blotting analysis (E) and RT-qPCR analysis (F). All data were shown as mean values±SD (n=3). * P<0.05, ** P<0.01, *** P<0.001. (G, H) PC-3 cells were infected with lentivirus expressing control shRNA or p65-specific shRNAs. After 24 hours, cells were further transfected with empty vector or SFB-RL-S249D/T252D for another 24 hours followed by western blot analysis (G) and RT-qPCR analysis (H). All data were shown as mean values±SD (n=3). * P<0.05, ** P<0.01, *** P<0.001. (I) Representative images of IHC of anti-PD-L1 and anti-pRB-S249/T252 antibodies of TMA (n=145 TMA elements) tissue sections. Scale bars were shown as indicated. (J) Heatmap showing IHC score of PD-L1 and pRB-S249/T252 in TMA. (K) Correlation analysis of IHC score for expression of PD-L1 and pRB-S249/T252 polypeptides in prostate cancer patient specimens (n=145 TMA elements). Pearson's product-moment correlation co-efficiency and the P values were also shown.
FIGS. 6A-J. The small S249/T252 phosphorylation-mimicking polypeptide of RB blocks irradiation-induced PD-L1 expression and inhibits cancer immune evasion. (A, B) PC-3 cells were infected with lentivirus expressing control shRNA or p65-specific or shRNA. 24 hours after puromycin selection, cells were treated with or without gamma irradiation (IR) (12 Gy). 48 hours after IR treatment, cells were harvested for western blotting analysis (A) and RT-qPCR analysis (B). All data were shown as mean values±SD (n=3). * P<0.05, ** P<0.01, *** P<0.001. (C, D) PC-3 cells were treated with without gamma irradiation (12 Gy). Cells were harvested at the indicated time point for western blotting analysis (C) and RT-qPCR analysis (D). All data were shown as mean values±SD (n=3). * P<0.05, ** P<0.01, *** P<0.001. (E) Western blot analysis of WCL and co-IP samples in PC-3 cells 48 hours after treated with or without gamma irradiation (12 Gy). (F) ChIP-qPCR analysis of p65 binds at the PD-L1 promotor in PC-3 cells 48 hours after treated with or without gamma irradiation (12 Gy). All data were shown as mean values±SD (n=3). * P<0.05, ** P<0.01, *** P<0.001. (G, H) PC-3 cells were treated with or without gamma irradiation (12 Gy). 24 hours post treatment, cells were transfected with indicated constructs. 24 hours after transfection, cells were harvested for western blotting analysis (G) and RT-qPCR analysis (H). All data were shown as mean values±SD (n=3). * P<0.05, ** P<0.01, *** P<0.001. (I) PTEN-CaP8 mouse prostate cancer cells were transduced with lentivirus for control vector or the small RB S249/T252-phosphorylation-mimicking polypeptide RL-S249D/T252D. 72 hours after purimycin selection, 5×10^6 control or RL-S249D/T252D-expressing cells were injected subcutaneously into C57BL/6 mice. Mice (n=8/group) were treated with gamma irradiation (12 Gy) or mock treated, and with anti-PD-L1 (200 μg) or non-specific IgG for 45 days. (J) The absolute number of CD45^+CD8^+ T cells, CD45^+CD4^+ T cells, and CD11b^+Gr1^+ myeloid cells of implanted PTEN-CaP8 in tumors treated with indicated agents was analyzed by FACS. All data were shown as mean values±SD (n=8). ns, not significant, *** P<0.001.
Total RNA was isolated using TRIzol reagent (Thermo Fisher Scientific). […]

PTEN-CaP8 tumors [1] = test: PTEN-CaP8 mice tumor model, tumor growth; assay type: in vivo, mouse; settings: C57BL/6 mice, s.c. PTEN-CaP8 tumors
Method: (§1) FIGS. 6A-J. The small S249/T252 phosphorylation-mimicking polypeptide of RB blocks irradiation-induced PD-L1 expression and inhibits cancer immune evasion. (A, B) PC-3 cells were infected with lentivirus expressing control shRNA or p65-specific or shRNA. 24 hours after puromycin selection, cells were treated with or without gamma irradiation (IR) (12 Gy). 48 hours after IR treatment, cells were harvested for western blotting analysis (A) and RT-qPCR analysis (B). All data were shown as mean values±SD (n=3). * P<0.05, ** P<0.01, *** P<0.001. (C, D) PC-3 cells were treated with without gamma irradiation (12 Gy). Cells were harvested at the indicated time point for western blotting analysis (C) and RT-qPCR analysis (D). All data were shown as mean values±SD (n=3). * P<0.05, ** P<0.01, *** P<0.001. (E) Western blot analysis of WCL and co-IP samples in PC-3 cells 48 hours after treated with or without gamma irradiation (12 Gy). […] (J) The absolute number of CD45^+CD8^+ T cells, CD45^+CD4^+ T cells, and CD11b^+Gr1^+ myeloid cells of implanted PTEN-CaP8 in tumors treated with indicated agents was analyzed by FACS. […]
6-week-old C57BL/6 mice (Jackson Lab) were used for animal experiments. […] The volume of xenografts was measured every other day and calculated using the formula L×W2×0.5. […]

PTEN-CaP8 tumors [2] = test: FACS of tumor-infiltrating immune cells in PTEN-CaP8 tumors; assay type: in vivo, mouse; settings: 12 Gy
Method: as §1
For flow cytometry analysis of mouse tissue samples, tumors were cut into small pieces and digested with 2 mg/mL collagenase (Sigma) in DMEM for 1 hour at 37° C. […] After incubated with antibody for 30 minutes, cells were washed with PBS and analyzed on a flow cytometer.

T1 sequence (Q04206 19-306 limits assumed): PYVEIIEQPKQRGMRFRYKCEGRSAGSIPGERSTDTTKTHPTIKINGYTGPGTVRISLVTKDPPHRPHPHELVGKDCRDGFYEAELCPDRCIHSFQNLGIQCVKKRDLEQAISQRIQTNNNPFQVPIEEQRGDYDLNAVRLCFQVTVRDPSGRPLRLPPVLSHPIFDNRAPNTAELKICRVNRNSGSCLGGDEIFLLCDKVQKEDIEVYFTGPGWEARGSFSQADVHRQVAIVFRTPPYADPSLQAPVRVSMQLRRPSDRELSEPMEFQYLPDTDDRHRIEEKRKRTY

RL-S249D/T252D: S249/T252 phospho-mimicking R-Linker (RL) peptide: fragment of RB-N containing 21 amino acids surrounding S249/T252, expressed SFB-tagged or by lentivirus (NGDPRDPRRGQNRSARIAKQL; also: expressed SFB-tagged (tag left off))
binding of in vitro transcribed and translated RL peptide to p65-N (p65-N): much stronger
PD-L1 expression in p65-proficient cells (PD-L1; PC-3 cells transfected with SFB-tagged peptide, 24 hours): largely inhibited
PD-L1 expression (FIG. 6G) (PD-L1; PC-3 cells transfected with peptide construct): almost completely blocked
PD-L1 expression in p65-depleted cells (PD-L1; PC-3 cells with p65 shRNA, transfected with SFB-tagged peptide, listed as RL-S249/T252D peptide): little or no effect
gamma irradiation-induced upregulation of PD-L1 (PD-L1; PC-3 cells, ectopic expression of peptide): largely, but not completely blocked
gamma irradiation-induced upregulation of PD-L1 (PD-L1; PC-3 cells, ectopic expression of peptide, listed as RL-S249/T252D): largely diminished
PD-L1 basal level (PD-L1; PC-3 cells, ectopic expression of peptide, no irradiation): decreased
tumor growth, agent combined with gamma irradiation (PTEN-CaP8 tumors [1]; 12 Gy): tumors regressed
tumor growth, agent without irradiation (PTEN-CaP8 tumors [1]; anti-PD-L1 200 μg or lentiviral peptide expression): markedly inhibited
CD11b+Gr1+ myeloid cells in tumors, agent combined with irradiation (PTEN-CaP8 tumors [2]): sharp decrease
CD45+CD8+ and CD45+CD4+ T cell infiltration in tumors, agent combined with irradiation (PTEN-CaP8 tumors [2]): dramatic increase
